Measurements reported in publication PMC6858373 (Scientific Reports, 2019).
Where a name gives a salt, the structure may show the parent alone. Read-outs that look alike come from different tables or passages of the source. *1 amine or outer side, *2 acyl side, *3 side chain or, on linkers, in order; H or OH if unused. Where a SMILES comes first, the peptide text is derived from it. Bridges are numbered along the chain shown (N, C = ends). Roman numbers before positions name the chains, in order. [ ]: non-standard residue; d: D form. Actinocin(9to1) = Cc1c2oc3c(C)ccc(C(=O)[*:1])c3nc-2c(C(=O)[*:2])c(N)c1=O; NMeV = CN[C@H](C(=O)O)C(C)C; Sar = CNCC(=O)O

Assays:
[1] = molecular target: T1, FGF14:Nav1.6 C-tail complex (Homo sapiens, UniProt Q92915+Q9UQD0); assay: Split-luciferase complementation assay (LCA) in Clone V double stable HEK293 cells; format: cell-based
T1 construct: polymerase chain reaction (PCR) amplification of the FGF14 open reading frame (nt 1–855); C-terminal fragment of Nav1.6 (amino acids 1763–1976) fused with CD4ΔC-tail (amino acids 1–395); expressed in transfected cells

[2] = tested on: Clone V cells
[3] = molecular target: full-length P. pyralis luciferase (Photinus pyralis, UniProt P08659, K549A/L550V/N119G/N50D/S548I); format: cell-based
[4] = CC_NCI screening, LCA luminescence, biological replicate Set 1, normalized to on-plate 0.3% DMSO controls (n=16 per plate)
[5] = CC_NCI screening, LCA luminescence, biological replicate Set 2, normalized to on-plate 0.3% DMSO controls (n=16 per plate)
[6] = CC_NCI screening, LCA, biological replicate Set 1, normalized to on-plate 0.3% DMSO controls
[7] = CC_NCI screening, LCA, biological replicate Set 2, normalized to on-plate 0.3% DMSO controls
[8] = CC_NCI screening, average of Set 1 and Set 2, normalized to 0.3% DMSO controls
[9] = CC_NCI screening, full-length luciferase counter-screen luminescence, normalized to on-plate 0.3% DMSO controls
[10] = CC_NCI screening, full-length luciferase counter-screen, normalized to on-plate 0.3% DMSO controls
[11] = CC_NCI screening, normalized to on-plate 0.3% DMSO controls

full-length P. pyralis luciferase, sequence (P08659 whole entry N50D/N119G/S548I/K549A/L550V, looked up): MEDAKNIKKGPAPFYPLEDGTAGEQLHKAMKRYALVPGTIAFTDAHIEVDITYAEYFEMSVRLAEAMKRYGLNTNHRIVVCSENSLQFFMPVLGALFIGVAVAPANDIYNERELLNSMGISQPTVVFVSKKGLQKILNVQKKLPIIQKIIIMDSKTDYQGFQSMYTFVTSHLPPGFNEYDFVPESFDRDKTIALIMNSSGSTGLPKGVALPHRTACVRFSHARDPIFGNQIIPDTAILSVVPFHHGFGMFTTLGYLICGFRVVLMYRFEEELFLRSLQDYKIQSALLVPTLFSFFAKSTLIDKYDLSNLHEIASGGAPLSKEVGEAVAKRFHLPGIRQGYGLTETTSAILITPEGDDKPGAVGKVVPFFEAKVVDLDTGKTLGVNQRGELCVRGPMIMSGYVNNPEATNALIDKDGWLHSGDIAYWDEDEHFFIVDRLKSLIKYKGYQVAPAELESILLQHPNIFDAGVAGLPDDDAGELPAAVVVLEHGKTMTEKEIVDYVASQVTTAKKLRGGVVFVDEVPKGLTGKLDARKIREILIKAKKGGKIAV
T1 sequence (Q92915 1-252 isoform Q92915-2): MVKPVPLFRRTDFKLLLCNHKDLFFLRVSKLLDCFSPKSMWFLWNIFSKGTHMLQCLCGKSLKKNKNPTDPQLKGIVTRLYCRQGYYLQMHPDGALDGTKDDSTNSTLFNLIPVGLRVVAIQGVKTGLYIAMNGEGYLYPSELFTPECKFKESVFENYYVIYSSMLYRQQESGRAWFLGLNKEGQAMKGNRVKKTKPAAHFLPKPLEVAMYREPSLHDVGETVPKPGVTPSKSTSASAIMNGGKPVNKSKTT
T1 sequence (Q9UQD0 1763-1976 limits assumed): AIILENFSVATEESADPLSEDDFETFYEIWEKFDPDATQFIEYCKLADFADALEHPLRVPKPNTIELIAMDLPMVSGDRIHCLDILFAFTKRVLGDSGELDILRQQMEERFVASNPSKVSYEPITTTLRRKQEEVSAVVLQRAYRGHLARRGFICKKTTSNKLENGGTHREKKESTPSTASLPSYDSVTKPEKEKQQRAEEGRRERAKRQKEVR

SMILES	Split Luciferase Assay % Lum Set 1 [1, 4]	Split Luciferase Assay %Lum Set 2 [1, 5]	Split Luciferase Assay Z-score Set 1 [1, 6]	Split Luciferase Assay Z-score Set 2 [1, 7]	Split Luciferase Assay %Lum Avg [1, 8]	Toxicity Assay % Fluor ([2]; human, 16 h, 30 µM)	Toxicity Assay Z-score ([2]; human, 16 h, 30 µM)	Luciferase Assay % Lum [3, 9]	Luciferase Assay Z-score [3, 10]	further results
Cc1nc(Nc2ncc(C(=O)Nc3c(C)cccc3Cl)s2)cc(N2CCN(CCO)CC2)n1 [DASATINIB]	38.37%	65.54%	-4.98	-2.80	51.96%	83.83%	-2.26	82.88%	-2.19	
COc1cc2c(cc1OC)[C@@H]1C(=O)c3ccc4c(c3O[C@@H]1CO2)C=CC(C)(C)O4 [DEGUELIN]	27.50%	26.01%	-5.86	-6.02	26.76%			66.30%	-4.32	Toxicity Assay % Fluor ([2]; human): 100.58%; Toxicity Assay Z-score ([2]; human): 0.08
Cc1nc2c(c(=O)[nH]1)CSCC2 [DR 2313]										Split Luciferase Assay Z-score Set 1 ([1]; CC_NCI screening, biological replicate Set 1, normalized to on-plate 0.3% DMSO controls): -1.11; Split Luciferase Assay % Lum Set 1 ([1]; CC_NCI screening, biological replicate Set 1, normalized to on-plate 0.3% DMSO controls (n=16 per plate)): 86.21%; Split Luciferase Assay Z-score Set 2 ([1]; CC_NCI screening, biological replicate Set 2, normalized to on-plate 0.3% DMSO controls): -0.26; Split Luciferase Assay %Lum Set 2 ([1]; CC_NCI screening, biological replicate Set 2, normalized to on-plate 0.3% DMSO controls (n=16 per plate)): 96.75%; Split Luciferase Assay %Lum Avg ([1]; average of Set 1 and Set 2, normalized to 0.3% DMSO controls): 91.48%; Toxicity Assay % Fluor (CTB cell viability fluorescence) [2]: 106.28%; Toxicity Assay Z-score (CTB cell viability) [2]: 0.88; Luciferase Assay % Lum (full-length luciferase counter-screen) [3, 11]: 93.50%; Luciferase Assay Z-score (full-length luciferase counter-screen) [3, 11]: -0.83
CC(C)(C)c1nc(-c2cccc(NS(=O)(=O)c3c(F)cccc3F)c2F)c(-c2ccnc(N)n2)s1.CS(=O)(=O)O [Dabrafenib mesylate]	126.43%	121.72%	2.14	1.77	124.07%			100.50%	0.06	Toxicity Assay % Fluor [2]: 93.50%; Toxicity Assay Z-score [2]: -0.91
Cc1c2oc3c(C)ccc(C(=O)N[C@@H]4C(=O)N[C@H](C(C)C)C(=O)N5CCC[C@H]5C(=O)N(C)CC(=O)N(C)[C@@H](C(C)C)C(=O)O[C@@H]4C)c3nc-2c(C(=O)N[C@@H]2C(=O)N[C@H](C(C)C)C(=O)N3CCC[C@H]3C(=O)N(C)CC(=O)N(C)[C@@H](C(C)C)C(=O)O[C@@H]2C)c(N)c1=O [Dactinomycin] (I: T[dV]P[Sar][NMeV] / II: T[dV]P[Sar][NMeV]; ester I:1-I:C, II:1-II:C; linker I:N-II:N via Actinocin(9to1))		65.54%		-2.80	62.83%			95.88%	-0.53	Toxicity Assay % Fluor ([2]; human): 93.25%; Toxicity Assay Z-score ([2]; human): -0.94
Cc1nc(Nc2ncc(C(=O)Nc3c(C)cccc3Cl)s2)cc(N2CCN(CCO)CC2)n1 [Dasatinib]	92.73%	79.06%	-0.59	-1.70	85.90%			84.22%	-2.02	Toxicity Assay % Fluor [2]: 94.47%; Toxicity Assay Z-score [2]: -0.77
COc1cccc2c1C(=O)c1c(O)c3c(c(O)c1C2=O)C[C@@](O)(C(C)=O)C[C@@H]3O[C@H]1C[C@H](N)[C@H](O)[C@H](C)O1 [Daunorubicin hydrochloride]	48.16%	61.38%	-4.19	-3.14	54.77%	81.24%	-2.62	65.12%	-4.47	
COc1cccc2c1C(=O)c1c(O)c3c(c(O)c1C2=O)C[C@@](O)(C(=O)CO)C[C@@H]3O[C@H]1C[C@H](N)[C@H](O)[C@H](C)O1 [Doxorubicin hydrochloride]	49.25%	58.26%	-4.10	-3.40	53.75%	94.10%	-0.82	78.74%		
CN(NC(=O)CC(=O)NN(C)C(=S)c1ccccc1)C(=S)c1ccccc1 [ELESCLOMOL]	30.77%	35.37%	-5.60	-5.26	33.07%	74.49%	-3.57	99.01%	-0.13	
Cn1cc(C2=C(c3cn(C4CCN(Cc5ccccn5)CC4)c4ccccc34)C(=O)NC2=O)c2ccccc21 [ENZASTAURIN]	84.03%	96.75%	-1.29	-0.26	90.39%	95.12%	-0.68	90.70%	-1.19	
CNC(=O)c1ccc(N2C(=S)N(c3ccc(C#N)c(C(F)(F)F)c3)C(=O)C2(C)C)cc1F [Enzalutamide]	94.90%	98.83%	-0.41	-0.10	96.87%	90.81%	-1.28			Luciferase Assay % Lum [3]: 80.08%; Luciferase Assay Z-score [3]: -2.55
COc1cccc2c1C(=O)c1c(O)c3c(c(O)c1C2=O)C[C@@](O)(C(=O)CO)C[C@@H]3O[C@H]1C[C@H](N)[C@@H](O)[C@H](C)O1 [Epirubicin hydrochloride]	44.90%	45.77%	-4.45	-4.41	45.34%	86.21%	-1.93	76.16%	-3.05	
C[C@]12CC[C@@H]3c4ccc(OC(=O)N(CCCl)CCCl)cc4CC[C@H]3[C@@H]1CC[C@@H]2OP(=O)(O)O [Estramustine phosphate sodium]										Split Luciferase Assay % Lum Set 1 [1]: 26.42%; Split Luciferase Assay %Lum Avg [1]: 32.45%; Split Luciferase Assay %Lum Set 2 [1]: 38.49%; Split Luciferase Assay Z-score Set 1 [1]: -5.95; Split Luciferase Assay Z-score Set 2 [1]: -5.00; Toxicity Assay % Fluor ([2]; human): 92.97%; Toxicity Assay Z-score ([2]; human): -0.98; Luciferase Assay % Lum [3]: 86.35%; Luciferase Assay Z-score [3]: -1.75
COc1cc([C@@H]2c3cc4c(cc3[C@@H](O[C@@H]3O[C@@H]5CO[C@@H](C)O[C@H]5[C@H](O)[C@H]3O)[C@H]3COC(=O)[C@H]23)OCO4)cc(OC)c1O [Etoposide]	77.51%	72.82%	-1.82	-2.21	75.17%	88.49%	-1.61	103.75%	0.48	
